Results on five molecules are retold here after patent publication US8410106B2, “Hydrazine-substituted anthranilic acid derivatives” (Bayer Cropscience AG, priority 2010, dated 2013).

Structures are written as SMILES. Read-outs that look alike come from different tables or passages of the source.

A short description of series [1]: logP determination by HPLC on reversed-phase columns (C 18), EEC Directive 79/831 Annex V.A8. The class given is physicochemical.
The test system of series [2] is larvae of the mustard beetle (Phaedon cochleariae). Nature of the series: Phaedon test (PHAECO spray treatment). The note with it: in Brassica rapa, foliar, 168 h, read-out: activity (beetle larvae killed).
The subject of series [3] is caterpillars of the army worm (Spodoptera frugiperda). Nature of the series: Spodoptera frugiperda test (SPODFR spray treatment). The class given is in vivo. The note with it: foliar, 168 h, read-out: activity (caterpillars killed).
Series [4] relates to greenhouse red spidermite (Tetranychus urticae). Kind of series: Tetranychus test, OP-resistant (TETRUR spray treatment). Particulars: after 6 days, bean leaf discs. It is filed as in vivo. As for the experimental part:
(§1) After 6 days the activity is determined, in %.

The subject of series [5] is green peach aphid (Myzus persicae). Nature of the series: Myzus test (MYZUPE spray treatment). It is filed as in vivo. The note with it: foliar, 144 h, read-out: activity (aphids killed). As for the experimental part: as §1
Where [6] appears, read: HPLC, reversed-phase C 18, table value without method mark, read-out: logP.
Setting [7] is: application rate 100 g/ha, after 7 days, maize leaf discs, spray.

Consider `COC(=O)N(C)NC(=O)c1cc(Cl)cc(C)c1NC(=O)c1cc(Cn2nnc(C(F)(F)F)n2)nn1-c1ncccc1C#N` [Example 59], for which the chromatographic logP in series [1] (setting [6]) worked out at 2.73. The pest or weed control at 100 g/ha in series [2] and in series [3] (setting [7]) was 100% each time. Further, in series [4] (application rate 100 g/ha), the “activity (mites killed)” value is listed as 100%.
With `COC(=O)N(C)NC(=O)c1cc(Cl)cc(Cl)c1NC(=O)c1cc(Cn2nc(OC)n(C)c2=O)nn1-c1ncccc1Cl` [Example 67], the chromatographic logP in series [1] amounted to 1.9. The “activity (mites killed)” value in series [4] (application rate 500 g/ha) worked out at 100%.
For the molecule `COC(=O)N(C)NC(=O)c1cc(I)cc(C)c1NC(=O)c1cc(Cn2nnc(C(F)(F)C(F)(F)C(F)(F)F)n2)nn1-c1ncccc1Cl` [Example 81], the chromatographic logP in series [1] (setting [6]) was determined as 3.85. For the same molecule, the pest or weed control at 100 g/ha in series [2] amounted to 100%; in series [5] (in Brassica rapa), 80%; in series [3] (in Zea mays) it was 100%.
For `COC(=O)N(C)N(C)C(=O)c1cc(C#N)cc(C)c1NC(=O)c1cc(Cn2nnc(C(F)(F)C(F)(F)C(F)(F)F)n2)nn1-c1ncccc1Cl` [Example 82], the chromatographic logP in series [1] (setting [6]) worked out at 3.67. Moreover, the pest or weed control at 100 g/ha in series [2], in series [5] (in Brassica rapa) and in series [3] (in Zea mays) was 100% in each case.
Consider `COC(=O)N(C)NC(=O)c1cc(Cl)cc(C)c1NC(=O)c1cc(Cn2nnc(C(F)(F)F)n2)nn1-c1ccccc1Cl` [Example 85], for which the chromatographic logP in series [1] (setting [6]) amounted to 3.34. The pest or weed control at 100 g/ha in series [2] came out at 100%; in series [5] (application rate 100 g/ha, after 6 days, Chinese cabbage leaf discs, spray), 100%; in series [3] (setting [7]), 100%.
